According to US7368471B2, “Substituted indole acid derivatives as inhibitors of plasminogen activator inhibitor-1 (PAI-1)” (Wyeth, priority 2001, dated 2008):

Assays:
[1] = molecular target: T1, recombinant human plasminogen activator inhibitor-1 (PAI-1) (Homo sapiens, UniProt P05121); experiment: Primary Screen for the PAI-1 Inhibition (residual tPA activity, Spectrozyme-tPA chromogenic substrate); type: biochemical; settings: 25 μM test compound
T1 construct: purchased Molecular Innovations, Royal Oak, Mich
Method: Primary Screen for the PAI-1 Inhibition
Test compounds are dissolved in DMSO at a final concentration of 10 mM, then diluted 100× in physiologic buffer. The inhibitory assay is initiated by the addition of the test compound (1-100 μM final concentration, maximum DMSO concentration of 0.2%) in a pH 6.6 buffer containing 140 nM recombinant human plasminogen activator inhibitor-1 (PAI-1; Molecular Innovations, Royal Oak, Mich.). Following a 1 hour incubation at room temperature, 70 nM of recombinant human tissue plasminogen activator (tPA) is added, and the combination of the test compound, PAI-1 and tPA is incubated for an additional 30 minutes. Following the second incubation, Spectrozyme-tPA (American Diagnostica, Greenwich, Conn.), a chromogenic substrate for tPA, is added and absorbance read at 405 nm at 0 and 60 minutes. Relative PAI-1 inhibition is equal to the residual tPA activity in the presence of the test compound and PAI-1. Control treatments include the complete inhibition of tPA by PAI-1 at the molar ratio employed (2:1), and the absence of any effect of the test compound on tPA alone.

T1 sequence (P05121 24-402): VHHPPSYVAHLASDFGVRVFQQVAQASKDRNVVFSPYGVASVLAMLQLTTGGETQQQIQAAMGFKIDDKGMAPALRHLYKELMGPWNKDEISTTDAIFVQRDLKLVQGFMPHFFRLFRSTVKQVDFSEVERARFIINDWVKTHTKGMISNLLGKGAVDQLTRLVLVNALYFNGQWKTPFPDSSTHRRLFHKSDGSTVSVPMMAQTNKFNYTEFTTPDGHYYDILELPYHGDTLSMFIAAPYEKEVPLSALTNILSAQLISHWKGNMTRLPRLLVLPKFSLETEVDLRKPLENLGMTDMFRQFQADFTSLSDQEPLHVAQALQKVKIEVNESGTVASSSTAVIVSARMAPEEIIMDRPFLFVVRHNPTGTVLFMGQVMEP

| Compound | melting point | inhibition at 25 µM [1] [%] | % Inhibition @ 25 μM [1] [%] |
| --- | --- | --- | --- |
| CC(C)(C)c1ccc(Cn2cc(C(=O)C(=O)O)c3ccc(-c4ccc(C(F)(F)F)cc4)cc32)cc1 [Example 7, {1-[4-(tert-Butyl)benzyl]-6-[4-(trifluoromethyl)phenyl]-1H-indol-3-yl}(oxo)acetic acid] | 205 to 206 °C (dec.) | 26 |  |
| Cc1ccc(Cn2cc(CC(=O)O)c3cc(-c4ccc(OC(F)(F)F)cc4)ccc32)cc1 [Example 65, {1-(4-Methylbenzyl)-5-[4-(trifluoromethoxy)phenyl]-1H-indol-3-yl}acetic acid] | 62 to 63 °C |  |  |
| O=C(O)C(=O)c1cn(CC2CCCCC2)c2ccc(-c3ccc(C(F)(F)F)cc3)cc12 [Example 52, [5-(4-trifluoromethylphenyl)-1-(cyclohexylmethyl)-1H-indol-3-yl](oxo)acetic acid] |  | 59 |  |
| O=C(O)C(=O)c1cn(CC2CCC2)c2ccc(-c3cccc(C(F)(F)F)c3)cc12 [Example 55, [5-(3-trifluoromethylphenyl)-1-(cyclobutylmethyl)-1H-indol-3-yl](oxo)acetic acid] |  | 51 |  |
| O=C(O)C(=O)c1cn(CC2CCC2)c2ccc(-c3cccc(Cl)c3)cc12 [Example 46, [5-(3-chlorophenyl)-1-(cyclobutylmethyl)-1H-indol-3-yl](oxo)acetic acid] |  | 45 |  |
| O=C(O)C(=O)c1cn(Cc2ccccc2)c2ccc(-c3ccc(C(F)(F)F)cc3)cc12 [Example 9, {1-Benzyl-5-[4-(trifluoromethyl)phenyl]-1H-indol-3-yl}(oxo)acetic acid] | 201 to 202 °C (dec.) | 40 |  |
| CC(=O)c1ccc(-c2ccc3c(c2)c(C(=O)C(=O)O)cn3Cc2ccccc2)cc1 [Example 11, [5-(4-Acetylphenyl)-1-benzyl-1H-indol-3-yl](oxo)acetic acid] | 213 to 214 °C (dec.) | 19 |  |
| O=C(O)C(=O)c1cn(C2CCCC2)c2ccc(-c3cccc(C(F)(F)F)c3)cc12 [Example 54, [5-(3-trifluoromethylphenyl)-1-(cyclopentyl)-1H-indol-3-yl](oxo)acetic acid] |  | 46 |  |
| COc1ccc(-c2ccc3c(c2)c(C(=O)C(=O)O)cn3CC2CCCCC2)cc1 [Example 59, [5-(4-methoxyphenyl)-1-(cyclohexylmethyl)-1H-indol-3-yl](oxo)acetic acid] |  | 58 |  |
| Cn1cc(C(=O)O)c2ccc(-c3ccc(C(F)(F)F)cc3)cc21 [Example 60, 1-Methyl-6-(4-trifluoromethyl-phenyl)-1H-indole-3-carboxylic acid] | 237 to 239 °C (dec.) | 39 |  |
| O=C(O)C(=O)c1cn(Cc2ccccc2)c2ccc(-c3ccccc3)cc12 [Example 24, (1-Benzyl-5-phenyl-1H-indol-3-yl)(oxo)acetic acid] | 193 to 195 °C (dec.) | 47 |  |
| [5-(3-chlorophenyl)-1-(3-methylcyclopropyl)-1H-indol-3-yl](oxo)acetic acid [Example 47] |  |  | 51 |
| Cn1cc(C(=O)O)c2ccc(-c3ccc(C(C)(C)C)cc3)cc21 [Example 61, 6-(4-tert-Butyl-phenyl)-1-methyl-1H-indole-3-carboxylic acid] | 236 to 238 °C (dec.) | 28 |  |
| CC(C)(C)c1ccc(-c2ccc3c(c2)c(C(=O)C(=O)O)cn3Cc2ccccc2)cc1 [Example 14, {1-Benzyl-5-[4-(tert-butyl)phenyl]-1H-indol-3-yl}(oxo)acetic acid] | 210 to 211 °C (dec.) | 55 |  |
| Cn1cc(C(=O)C(=O)O)c2ccc(-c3ccc(OC(F)(F)F)cc3)cc21 [Example 1, {1-Methyl-6-[4-(trifluoromethoxy)phenyl]-1H-indol-3-yl}(oxo)acetic acid] | 233 to 235 °C (dec.) | 15 |  |
| Cc1cccc(-c2ccc3c(c2)c(CC(=O)O)cn3Cc2ccc(C(C)(C)C)cc2)c1 [Example 64, 2-[1-[4-(tert-Butyl)benzyl]-5-(3-methylphenyl)-1H-indol-3-yl]-acetic acid] | 91 to 92 °C |  |  |
| CC1CCC(n2cc(C(=O)C(=O)O)c3cc(-c4cccc(C(F)(F)F)c4)ccc32)C1 (centres unmarked) [Example 56, [5-(3-trifluoromethylphenyl)-1-(3-methylcyclopentyl)-1H-indol-3-yl](oxo)acetic acid] |  | 54 |  |
| Cn1cc(C(=O)C(=O)O)c2ccc(-c3ccc(C(C)(C)C)cc3)cc21 [Example 10, {6-[4-(tert-Butyl)phenyl]-1-methyl-1H-indol-3-yl}(oxo)acetic acid] | 201 to 202 °C (dec.) | 33 |  |

| Compound | melting point | inhibition at 25 µM [1] [%] | % Inhibition @ 25 μM [1] [%] |
| --- | --- | --- | --- |
| O=C(O)C(=O)c1cn(Cc2ccccc2)c2cc(-c3ccc(C(F)(F)F)cc3)ccc12 [Example 6, {1-Benzyl-6-[4-(trifluoromethyl)phenyl]-1H-indol-3-yl}(oxo)acetic acid] | 223 to 224 °C (dec.) | 27 |  |
| Cn1cc(CC(=O)O)c2cc(-c3ccc(C(F)(F)F)cc3)ccc21 [Example 63, [1-Methyl-5-(4-trifluoromethyl-phenyl)-1H-indol-3-yl]-acetic acid] | 167 to 168 °C |  |  |
| CCCCn1cc(C(=O)C(=O)O)c2cc(-c3cccc(OC)c3)ccc21 [Example 31, [1-Butyl-5-(3-methoxyphenyl)-1H-indol-3-yl](oxo)acetic acid] | 108 to 109 °C | 32 |  |
| CCn1cc(C(=O)C(=O)O)c2ccc(-c3ccc(OC(F)(F)F)cc3)cc21 [Example 3, {1-Ethyl-6-[4-(trifluoromethoxy)phenyl]-1H-indol-3-yl}(oxo)acetic acid] | 204 to 205 °C | 24 |  |
| O=C(O)C(=O)c1cn(C2CCCC2)c2ccc(-c3cccc(Cl)c3)cc12 [Example 45, [5-(3-Chlorophenyl)-1-cyclopentyl-1H-indol-3-yl]-oxo-acetic acid] |  | 45 |  |
| O=C(O)C(=O)c1cn(C2CCCC2)c2ccc(-c3ccc(C(F)(F)F)cc3)cc12 [Example 49, [5-(4-trifluoromethylphenyl)-1-(cyclopentyl)-1H-indol-3-yl](oxo)acetic acid] |  | 54 |  |
| CCn1cc(C(=O)C(=O)O)c2ccc(-c3ccc(C(F)(F)F)cc3)cc21 [Example 4, {1-Ethyl-6-[4-(trifluoromethyl)phenyl]-1H-indol-3-yl}(oxo)acetic acid] | 247 to 248 °C | 16 |  |
| O=C(O)C(=O)c1cn(Cc2ccccc2)c2cccc(-c3ccc(C(F)(F)F)cc3)c12 [Example 13, {1-Benzyl-4-[4-(trifluoromethyl)phenyl]-1H-indol-3-yl}(oxo)acetic acid] | 183 to 184 °C | 27 |  |
| O=C(O)C(=O)c1cn(CCCC2CCCC2)c2ccc(-c3ccc(C(F)(F)F)cc3)cc12 [Example 53, [5-(4-trifluoromethylphenyl)-1-(cyclopentylpropyl)-1H-indol-3-yl](oxo)acetic acid] |  | 67 |  |
| CC(C)(C)c1ccc(Cn2cc(C(=O)C(=O)O)c3cc(-c4ccc(Cl)cc4)ccc32)cc1 [Example 38, [1-(4-tert-Butylbenzyl)-5-(4-chlorophenyl)-1H-indol-3-yl](oxo)acetic acid] | 183 to 184 °C | 14 |  |
| CC1CCC(n2cc(C(=O)C(=O)O)c3cc(-c4ccc(C(F)(F)F)cc4)ccc32)C1 (centres unmarked) [Example 51, [5-(4-trifluoromethylphenyl)-1-(3-methylcyclopentyl)-1H-indol-3-yl](oxo)acetic acid] |  | 58 |  |
| O=C(O)C(=O)c1cn(CC2CCC2)c2ccc(-c3ccc(C(F)(F)F)cc3)cc12 [Example 50, [5-(4-trifluoromethylphenyl)-1-(cyclobutylmethyl)-1H-indol-3-yl](oxo)acetic acid] |  | 59 |  |
| CCCCn1cc(C(=O)C(=O)O)c2cc(-c3ccc(OC)cc3)ccc21 [Example 32, [1-Butyl-5-(4-methoxyphenyl)-1H-indol-3-yl](oxo)acetic acid] | 172 to 173 °C | 28 |  |
| CC(=O)OCc1c(C(=O)C(=O)O)c2cc(-c3ccc(OC(F)(F)F)cc3)ccc2n1Cc1ccc(C)cc1 [Example 41, {2-[(Acetyloxy)methyl]-1-(4-methylbenzyl)-5-[4-(trifluoromethoxy)phenyl]-1H-indol-3-yl}(oxo)acetic acid] | 79 to 80 °C | 13 |  |
| O=C(O)C(=O)c1cn(CC2CCCCC2)c2ccc(-c3cccc(C(F)(F)F)c3)cc12 [Example 57, [5-(3-trifluoromethylphenyl)-1-(cyclohexylmethyl)-1H-indol-3-yl](oxo)acetic acid] |  | 57 |  |
| O=C(O)C(=O)c1cn(CCCC2CCCC2)c2ccc(-c3cccc(C(F)(F)F)c3)cc12 [Example 58, [5-(3-trifluoromethylphenyl)-1-(cyclopentylpropyl)-1H-indol-3-yl](oxo)acetic acid] |  | 61 |  |
| O=C(O)C(=O)c1cn(Cc2ccccc2)c2cccc(-c3ccc(OC(F)(F)F)cc3)c12 [Example 20, {1-Benzyl-4-[4-(trifluoromethoxy)phenyl]-1H-indol-3-yl}(oxo)acetic acid] |  | 14 |  |
| O=C(O)C(=O)c1cn(Cc2ccccc2)c2cc(-c3ccccc3)ccc12 [Example 23, (1-Benzyl-6-phenyl-1H-indol-3-yl)(oxo)acetic acid] |  | 40 |  |
